Patent publication US11491228B2, “Hydrogels and uses thereof” (Massachusetts Institute of Technology, priority 2018, dated 2022)

Assay: Release of taxanes from PEG alkynoate-TREN (beta-aminoacrylate) gel into PBS, HPLC
Format: physicochemical
Conditions: 37° C.
Description: Samples were stored at +4° C. […] The wavelength of detection was 227 nm. Phases were A: water, B: MeCN.

- Concentrations of taxane following release from PEG alkynoate-TREN gels (1 h, average): 39.29 ng/mL
- Concentrations of taxane following release from PEG alkynoate-TREN gels (1 h, replicate A): -152.3 ng/mL
- Concentrations of taxane following release from PEG alkynoate-TREN gels (1 h, replicate B): 422.4 ng/mL
- Concentrations of taxane following release from PEG alkynoate-TREN gels (1 h, replicate C): -152.3 ng/mL
- Concentrations of taxane following release from PEG alkynoate-TREN gels (2 h, average): 201.4 ng/mL
- Concentrations of taxane following release from PEG alkynoate-TREN gels (2 h, replicate A): -152.3 ng/mL
- Concentrations of taxane following release from PEG alkynoate-TREN gels (2 h, replicate B): 555 ng/mL
- Concentrations of taxane following release from PEG alkynoate-TREN gels (2 h, replicate C): 201.4 ng/mL
- Concentrations of taxane following release from PEG alkynoate-TREN gels (5 h, average): 363.5 ng/mL
- Concentrations of taxane following release from PEG alkynoate-TREN gels (5 h, replicate A): 1041 ng/mL
- Concentrations of taxane following release from PEG alkynoate-TREN gels (5 h, replicate B): 201.4 ng/mL
- Concentrations of taxane following release from PEG alkynoate-TREN gels (5 h, replicate C): -152.3 ng/mL
- Concentrations of taxane following release from PEG alkynoate-TREN gels (20 h, average): 267.7 ng/mL
- Concentrations of taxane following release from PEG alkynoate-TREN gels (20 h, replicate A): 643.4 ng/mL
- Concentrations of taxane following release from PEG alkynoate-TREN gels (20 h, replicate B): 311.9 ng/mL
- Concentrations of taxane following release from PEG alkynoate-TREN gels (20 h, replicate C): -152.3 ng/mL
- Concentrations of taxane following release from PEG alkynoate-TREN gels (48 h, average): 1127.9 ng/mL
- Concentrations of taxane following release from PEG alkynoate-TREN gels (48 h, replicate A): 984.7 ng/mL
- Concentrations of taxane following release from PEG alkynoate-TREN gels (48 h, replicate B): 1003 ng/mL
- Concentrations of taxane following release from PEG alkynoate-TREN gels (48 h, replicate C): 1396 ng/mL
- % released from PEG alkynoate-TREN gels (Table 3, 1 h, average): 0.05239%
- % released from PEG alkynoate-TREN gels (Table 3, 1 h, replicate A): −0.203%
- % released from PEG alkynoate-TREN gels (Table 3, 1 h, replicate B): 0.5632%
- % released from PEG alkynoate-TREN gels (Table 3, 1 h, replicate C): −0.203%
- % released from PEG alkynoate-TREN gels (Table 3, 2 h, average): 0.2685%
- % released from PEG alkynoate-TREN gels (Table 3, 2 h, replicate A): −0.203%
- % released from PEG alkynoate-TREN gels (Table 3, 2 h, replicate B): 0.74%
- % released from PEG alkynoate-TREN gels (Table 3, 2 h, replicate C): 0.2685%
- % released from PEG alkynoate-TREN gels (Table 3, 5 h, average): 0.4846%
- % released from PEG alkynoate-TREN gels (Table 3, 5 h, replicate A): 1.388%
- % released from PEG alkynoate-TREN gels (Table 3, 5 h, replicate B): 0.2685%
- % released from PEG alkynoate-TREN gels (Table 3, 5 h, replicate C): −0.203%
- % released from PEG alkynoate-TREN gels (Table 3, 20 h, average): 0.3569%
- % released from PEG alkynoate-TREN gels (Table 3, 20 h, replicate A): 0.8579%
- % released from PEG alkynoate-TREN gels (Table 3, 20 h, replicate B): 0.4158%
- % released from PEG alkynoate-TREN gels (Table 3, 20 h, replicate C): −0.203%
- % released from PEG alkynoate-TREN gels (Table 3, 48 h, average): 1.504%
- % released from PEG alkynoate-TREN gels (Table 3, 48 h, replicate A): 1.3129%
- % released from PEG alkynoate-TREN gels (Table 3, 48 h, replicate B): 1.337%
- % released from PEG alkynoate-TREN gels (Table 3, 48 h, replicate C): 1.862%
- % released from PEG alkynoate-TREN gels (Table 4, 1 h, average): 2.074%
- % released from PEG alkynoate-TREN gels (Table 4, 1 h, replicate A): 2.465%
- % released from PEG alkynoate-TREN gels (Table 4, 1 h, replicate B): 2.016%
- % released from PEG alkynoate-TREN gels (Table 4, 1 h, replicate C): 1.741%
- % released from PEG alkynoate-TREN gels (Table 4, 6 h, average): 4.82%
- % released from PEG alkynoate-TREN gels (Table 4, 6 h, replicate A): 6.195%
- % released from PEG alkynoate-TREN gels (Table 4, 6 h, replicate B): 4.946%
- % released from PEG alkynoate-TREN gels (Table 4, 6 h, replicate C): 3.318%
- % released from PEG alkynoate-TREN gels (Table 4, 24 h, average): 7.196%
- % released from PEG alkynoate-TREN gels (Table 4, 24 h, replicate A): 11.23%
- % released from PEG alkynoate-TREN gels (Table 4, 24 h, replicate B): 7.325%
- % released from PEG alkynoate-TREN gels (Table 4, 24 h, replicate C): 3.032%
- % released from PEG alkynoate-TREN gels (Table 4, 96 h, average): 12.3%
- % released from PEG alkynoate-TREN gels (Table 4, 96 h, replicate A): 8.246%
- % released from PEG alkynoate-TREN gels (Table 4, 96 h, replicate B): 9.349%
- % released from PEG alkynoate-TREN gels (Table 4, 96 h, replicate C): 19.32%
Compound: CC(=O)O[C@@]12CO[C@@H]1C[C@H](O)[C@@]1(C)C(=O)[C@H](O)C3=C(C)[C@@H](OC(=O)[C@H](O)[C@@H](NC(=O)OC(C)(C)C)c4ccccc4)C[C@@](O)([C@@H](OC(=O)c4ccccc4)[C@H]21)C3(C)C [Docetaxel, docetaxel]
